From patent US6559148B1, “Use of P2Y purinoreceptor antagonist for the treatment of ischemia reperfusion” (Consiglio Nazionale delle Ricerche, priority 1998, dated 2003)
“Also recorded” adds a separate entry of the source.

Tested on: Wistar albino adult male rats
Assay: Transient global cerebral ischemia by 4-vessel occlusion (4-VO, Pulsinelli and Brierley method) for 30 minutes
Assay type: in vivo, rat
Settings: 30 minutes global ischemia
Method: By way of non-limiting example of the present invention, some experimental examples are given herein that show the effectiveness of the compounds modulating P2 purinoceptors, and in particular Basilen Blue, in the reduction of mortality induced by global ischemia. In particular, for such analysis Wistar albino adult male rats weighting 220-250 g have been utilized. Basilen Blue was diluted in saline solution. After a 12 hour fast, transient cerebral ischemia was induced in the rats by the Pulsinelli and Brierley method (Stroke, 10:267-272, 1979). The animals were anesthetized with 2% halotane in a mixture of 30% O2 and 70% N2O. Both vertebral arteries were electrically cauterized and thin claps from Teflon were loosely and reversibly placed around the common carotid arteries. The animals were allowed to recover from anesthesia and kept one per cage, under standard conditions of humidity, temperature and light. The following day, the rats were submitted to a mild anesthesia always with halothane and the claps previously placed around the common carotid arteries were tightened to produce the occlusion of 4 vessels (4-VO) for 30 minutes (in 24 animals). The absence of locomotion activity, the loss of corneal and righting reflexes and the presence of paralytic mydriasis, which took place after 1-2 minutes from the carotid occlusion, were the criteria according to which the animals were considered ischemic and included in the study. The rectal temperature was monitored during the following recovery period and kept constant at a temperature between 36.5 and 37° C. until the rats recovered the locomotion activity and the thermal homeostasis. […]
Wistar albino male rats, having a mean weight of 220-250 g, treated with saline solution (controls) or Basilen Blue were submitted for 30 minutes to global cerebral ischemia, the whole as described previously. The mortality was then monitored for two days following the carotid occlusion in a total of 24 animals (11 controls and 13 treated with Basilen Blue). […]

Basilen Blue E-3G (Reactive Blue 2)
neuronal damage to the hippocampus (neurons lost in CA1-CA2 sectors) (2 x 4,5 mg/kg i.p., vs saline controls): less severe | mortality index compared to control group (2 x 4,5 mg/kg i.p., vs saline controls, p>0,05 as printed): significantly lower; also recorded: reduces the mortality | animals died (mortality) within two days from the carotid occlusion (Basilen Blue 4,5 mg/kg i.p. 15 minutes before and 3 hours after carotid occlusion, control group 5 out of 11 died): 3 out of the 13
